Measurements published in publication PMC5068966, “Lysosomal membrane glycoproteins bind cholesterol and contribute to lysosomal cholesterol export” (eLife, 2016).
Blank lines part the entries; values can stand above or below the compound they belong to.

How the values were obtained:
[1] = biological target: T1, LAMP2 (Homo sapiens, UniProt P13473); experiment: competition with […] 3H-cholesterol on purified protein; assay type: binding; parameters: soluble lumenal domain, human LAMP2 (1–375)
[2] = biological target: T1, LAMP2; experiment: single-concentration ([…]) competition with 3H-cholesterol on purified protein; assay type: binding; parameters: soluble lumenal domain, human LAMP2 (1–375)
[3] = biological target: T1, LAMP2; experiment: direct 3H-25-hydroxycholesterol binding to purified protein; competition with 3H-cholesterol; parameters: soluble lumenal domain, human LAMP2 (1–375)
[4] = biological target: T2, LAMP1 (Homo sapiens, UniProt P11279); experiment: 3H-cholesterol binding to purified His-tagged protein on Ni-NTA
T2 construct: soluble lumenal domain, human LAMP1(1–382)
T2 sequence (P11279 1-382): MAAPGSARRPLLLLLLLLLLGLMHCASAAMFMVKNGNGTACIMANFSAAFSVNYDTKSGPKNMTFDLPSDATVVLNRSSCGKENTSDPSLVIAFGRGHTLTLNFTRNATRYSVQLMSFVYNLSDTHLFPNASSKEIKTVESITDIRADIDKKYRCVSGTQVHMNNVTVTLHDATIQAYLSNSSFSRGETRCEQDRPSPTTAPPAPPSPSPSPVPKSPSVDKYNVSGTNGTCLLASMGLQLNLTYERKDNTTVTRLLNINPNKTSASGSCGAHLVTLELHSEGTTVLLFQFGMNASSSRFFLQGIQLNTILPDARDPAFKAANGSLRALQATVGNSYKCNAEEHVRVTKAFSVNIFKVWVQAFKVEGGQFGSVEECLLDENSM

[5] = biological target: T1, LAMP2; experiment: 3H-cholesterol binding to purified His-tagged protein on Ni-NTA, with cold competition; bound cholesterol also identified by TLC and LC/MS; parameters: soluble lumenal domain, human LAMP2 (1–375); also domain 1 (1–231) and domain 2
[6] = biological target: AF647 labeled-NPC2 (UniProt P61916); experiment: MST; 6 nM AF647 labelled NPC2, 16 two-fold dilutions of soluble LAMP2 or RNase B; 50 mM MES pH 5.5, 150 mM NaCl, 0.004% NP-40; in 1 µM cholesterol sulfate
Sequence of AF647 labeled-NPC2 (P61916 20-151): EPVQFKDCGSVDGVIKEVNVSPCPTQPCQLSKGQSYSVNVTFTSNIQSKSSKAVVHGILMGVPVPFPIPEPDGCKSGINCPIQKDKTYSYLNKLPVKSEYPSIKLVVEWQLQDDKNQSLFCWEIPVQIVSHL

[7] = biological target: AF647 labeled His6-NPC1 N-terminal domain (UniProt O15118); experiment: MST; 6 nM AF647 labelled protein, 16 two-fold dilutions of soluble LAMP2; 50 mM MES pH 5.5, 150 mM NaCl, 0.004% NP-40; in 1 µM cholesterol; fluorescence read for NPC1 N-terminal domain, thermophoresis for RNase B
Sequence of AF647 labeled His6-NPC1 N-terminal domain (O15118 whole entry, the tested form may be a part): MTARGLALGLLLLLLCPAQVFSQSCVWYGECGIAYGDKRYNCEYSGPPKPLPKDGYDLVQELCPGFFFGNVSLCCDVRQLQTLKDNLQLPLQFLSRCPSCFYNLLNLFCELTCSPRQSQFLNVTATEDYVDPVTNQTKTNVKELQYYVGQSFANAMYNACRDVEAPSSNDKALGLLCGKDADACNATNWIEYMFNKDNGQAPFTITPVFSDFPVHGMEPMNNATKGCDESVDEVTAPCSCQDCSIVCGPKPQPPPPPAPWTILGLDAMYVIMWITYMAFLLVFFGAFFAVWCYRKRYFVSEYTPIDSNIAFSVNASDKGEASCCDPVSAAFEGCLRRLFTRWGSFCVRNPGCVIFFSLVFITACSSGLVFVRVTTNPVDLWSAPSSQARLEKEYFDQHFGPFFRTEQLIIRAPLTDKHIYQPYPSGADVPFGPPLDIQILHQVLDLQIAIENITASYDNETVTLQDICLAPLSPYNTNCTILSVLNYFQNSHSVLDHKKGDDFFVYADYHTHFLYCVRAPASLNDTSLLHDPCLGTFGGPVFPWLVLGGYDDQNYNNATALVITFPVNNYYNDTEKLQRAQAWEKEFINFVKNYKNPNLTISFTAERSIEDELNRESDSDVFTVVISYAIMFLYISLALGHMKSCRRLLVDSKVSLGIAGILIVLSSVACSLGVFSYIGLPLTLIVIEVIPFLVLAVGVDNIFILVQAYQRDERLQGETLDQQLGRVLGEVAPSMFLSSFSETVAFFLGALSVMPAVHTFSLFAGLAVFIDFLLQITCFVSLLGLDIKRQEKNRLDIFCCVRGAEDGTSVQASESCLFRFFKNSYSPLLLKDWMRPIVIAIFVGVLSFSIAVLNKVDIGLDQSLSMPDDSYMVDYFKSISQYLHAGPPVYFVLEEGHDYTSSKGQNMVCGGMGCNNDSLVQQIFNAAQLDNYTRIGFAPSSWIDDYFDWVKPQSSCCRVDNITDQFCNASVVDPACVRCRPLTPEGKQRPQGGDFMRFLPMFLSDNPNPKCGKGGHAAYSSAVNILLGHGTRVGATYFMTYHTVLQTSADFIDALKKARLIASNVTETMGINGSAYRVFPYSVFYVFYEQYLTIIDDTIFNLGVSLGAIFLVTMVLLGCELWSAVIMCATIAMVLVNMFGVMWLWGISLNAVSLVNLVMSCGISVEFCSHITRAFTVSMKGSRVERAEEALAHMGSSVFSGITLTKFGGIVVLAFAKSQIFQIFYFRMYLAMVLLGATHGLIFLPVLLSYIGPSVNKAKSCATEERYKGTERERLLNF

T1 sequence (P13473 29-375): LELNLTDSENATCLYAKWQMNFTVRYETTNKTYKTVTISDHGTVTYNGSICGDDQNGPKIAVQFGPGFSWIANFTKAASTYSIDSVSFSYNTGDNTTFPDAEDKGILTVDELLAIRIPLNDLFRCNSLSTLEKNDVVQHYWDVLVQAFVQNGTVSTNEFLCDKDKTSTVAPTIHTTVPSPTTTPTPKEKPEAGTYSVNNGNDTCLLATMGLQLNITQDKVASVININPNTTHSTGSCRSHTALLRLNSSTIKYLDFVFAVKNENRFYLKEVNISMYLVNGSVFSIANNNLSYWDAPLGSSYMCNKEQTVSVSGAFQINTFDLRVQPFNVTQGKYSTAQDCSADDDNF

Compound: CC(C)CCC[C@@H](C)[C@H]1CC[C@H]2[C@@H]3C(=O)C=C4C[C@@H](O)CC[C@]4(C)[C@H]3CC[C@]12C [7-ketocholesterol]
- competition with 50 nM 3H-cholesterol on purified protein [1]: 7-ketocholesterol (Figure 2D), but not cholesterol sulfate (Figure 2A), compete with ^3H-cholesterol for binding to LAMP2 protein

Compound: CC(C)C(O)CC[C@@H](C)[C@H]1CC[C@H]2[C@@H]3CC=C4C[C@@H](O)CC[C@]4(C)[C@H]3CC[C@]12C (stereo partly shown) [24-HC, 24-hydroxycholesterol]
- single-concentration (30 μM) competition with 3H-cholesterol on purified protein [2]: ^3H-cholesterol binding was competed by unlabeled cholesterol, 24-hydroxycholesterol, but not cholesterol sulfate (Figure 1G)

Compound: C[C@H](CCCC(C)(C)O)[C@H]1CC[C@H]2[C@@H]3CC=C4C[C@@H](O)CC[C@]4(C)[C@H]3CC[C@]12C [25-hydroxycholesterol]
- direct 3H-25-hydroxycholesterol binding to purified protein; competition with 3H [3]: LAMP2 also bound ^3H-25-hydroxycholesterol with similar apparent affinity as cholesterol; binding was competed by excess cold 25-hydroxycholesterol

Compound: CC(C)CCC[C@@H](C)[C@H]1CC[C@H]2[C@@H]3CC=C4C[C@@H](O)CC[C@]4(C)[C@H]3CC[C@]12C [cholesterol]
- 3H-cholesterol binding to purified His-tagged protein on Ni-NTA [4]: Soluble, purified, LAMP1 and LAMP2 proteins appeared to bind ^3H-cholesterol saturably
- 3H-cholesterol binding to purified His-tagged protein on Ni-NTA, with cold compe [5]: Soluble, purified, LAMP1 and LAMP2 proteins appeared to bind ^3H-cholesterol saturably

- Kd [6]: 122 nM
- Kd [7]: 6 nM
Compound: full length, soluble human LAMP2 (1-375) (from UniProt P13473 29-375) (domain or fragment)
